Assay results taken from patent US20230346743A1, “COMBINATION CANCER THERAPIES” (The Board of Regents of the University of Oklahoma, priority 2018, published 2023).

Columns and labels:
NCI 60-cell line panel = conditions: cited from earlier work
[1] = Toxicity in the MESOV mouse model (body weight, ascites, kidney and liver histology); type: in vivo; conditions: mouse, in vivo, ip
Description: Four-week-old female athymic nude mice (NCr-Foxn1^nu) were obtained from Taconic Biosciences under an approved Institutional Animal Care and Use Committee (IACUC) protocol. Mice were acclimatized for two weeks, fed with a standard diet and ear tagged during the acclimatization period. The timing to tumor development after intraperitoneal injection with various amounts of MESOV cells was determined in a pilot study prior. In the intervention experiment, 6-week-old mice were injected with 20 million MESOV human ovarian cancer cells in their intraperitoneal region. Drug treatment was initiated 4 weeks after the injection of cancer cells. Mice were randomized to four treatment groups before the start of treatment based on their body weight. There was no significant (one-way ANOVA, p >0.999) difference in body weight between groups at the start of treatment. Twelve mice were allocated to each group based on the power analysis performed while designing experiment. The sample size was determined to provide over 80% power to detect a 915 mm^3 difference in tumor volume between PRIMA-1^MET treatment alone and the drug combination treatment using a two-sided 0.05 level t-test. SHetA2 was administered by gavage at 60 mg/kg in 30% Kolliphor HS15 (Sigma). Controls were gavaged with Kolliphor HS15 (30% in water). PRIMA-1^MET (10 mg/kg) was dissolved in phosphate buffered saline and injected into the peritoneum of mice every other day. Initially SHetA2 dosing was administered every day for two weeks in SHetA2 alone and drug combination groups, and then switched to every other day for the next three weeks due to the stress caused to the mice by daily gavage. Oral gavaging was performed with sterile disposable plastic feeding tubes 20 ga × 38 mm (Instech Laboratories, Inc., Plymouth Meeting, PA, USA). Three mice in the drug combination group died after two weeks of drug treatment due to gavaging incidents. Body weights were recorded and animal health was monitored weekly. After the end of drug intervention period, all mice were euthanized by CO2 asphyxiation followed by exsanguination, their tumors and other vital organs were collected for further analysis. After measuring the total tumor weight, a portion of the tumors were snap frozen in liquid nitrogen and another portion was formalin fixed. The formalin fixed tissue samples were paraffin embedded, sectioned and stained with hematoxylin and eosins for histology studies. An experienced pathologist reviewed blinded histology slides for kidney and liver toxicity.

p21 = assay: Western blots of p21 in ovarian cancer cell lines; type: cell-based, human; conditions: A2780, SKOV3, SKOV3 R273H, SKOV3 R248W
Description: (§1) Proteins were extracted from cell cultures using M-PER mammalian protein extraction reagent (ThermoFisher, Waltham, MA, USA) and volumes corresponding to 30 µg determined with BCA reagent (ThermoFisher, Waltham, MA, USA) were electrophoresed into a SDS-PAGE gel and transferred to PVDF membranes. Membranes were blocked (5% dry skim milk powder in TBST buffer) for at least 1 h or overnight, washed thrice with TBST and then incubated with primary antibody: p53 DO-1, β-actin, histone H3, GAPDH (Santa Cruz Biotechnology, Dallas, TX, USA) and mortalin, Tom20, V5 tag antibodies, p21, PARP, SLC7A11, caspase 3 (Cell Signaling Technology, Danvers, MA, USA) for at least 1 h or overnight. After three washes, membranes were incubated with anti-mouse HRP conjugated (Santa Cruz Biotechnology, Dallas, TX, USA) or anti-Rabbit HRP conjugated (Cell Signaling Technology, Danvers, MA, USA) for 40 min. Membranes then were washed and developed with ECL reagents (BioRad, Hercules, CA, USA). Bands were imaged and quantified (ChemiDoc imaging system with Image Lab Software/BioRad).

p53 [2] = assay: p53 cellular localization (immunofluorescence, Western blots of fractions) in ovarian cancer cell lines; type: cell-based, human; conditions: A2780 and OV90 ovarian cancer cell lines
Description: (§2) Cytoplasmic and nuclear protein fractions were isolated from cultures using NE-PER Nuclear and Cytoplasmic Extraction Reagents (ThermoFisher, Waltham, MA, USA) and the Mitochondria/Cytosol Fractionation Kit (ThermoFisher, Waltham, MA, USA) and protein concentrations determined with BCA reagent (ThermoFisher, Waltham, MA, USA).
as §1, with “Software/BioRad). […]” for “Software/BioRad).”

p53 [3] = assay: p53 cellular localization in hFTSECs; type: cell-based, human; conditions: 24 h
Description: as §2
as §1, with “Software/BioRad). […]” for “Software/BioRad).”

TP21 gene = assay: qRT-PCR of TP21 in SKOV3 cells; type: cell-based, human; conditions: SKOV3 parental (p53 null) and R273H m-p53 cells; SHetA2 10 µM, PRIMA-1 20 µM, 16 h

SMILES: CC1(C)CC(C)(C)c2cc(NC(=S)Nc3ccc([N+](=O)[O-])cc3)ccc2S1 [SHetA2]
- Activity against cancer cell lines (NCI 60-cell line panel): active against all cancers present in the NCI 60-cell line panel
- Effects on body weight or ascites (abdominal size) [1]: no significant effects on body weight or ascites
- Kidney or liver toxicity (H & E histology) [1]: did not cause kidney or liver toxicity
- p21 protein (Western blot) (p21): increased p21 protein in all cell lines evaluated regardless of p53 status
- p53 in nuclei (immunofluorescent imaging) (p53 [2]): dose-dependent elevation of both wild type and mutant p53 in nuclei
- p53 cellular localization (p53 [3]): minimal effects on p53 cellular localization
- TP21 transcription (qRT-PCR) (TP21 gene): induced TP21 transcription
